In assay [1] the test system is IFN-gamma-secreting cells (PBMC). Kind of assay: Ex vivo ELISPOT, PBMC stimulated with artificial APC DYNAL beads + [MHC + peptide]. Type of assay: cell-based, human.
The test system is the same in assay [2]. Put plainly: Ex vivo ELISPOT, PBMC stimulated with plain (non-complexed) peptide. Format: cell-based, human. Particulars: PBMC 3 × 10^5 cells/well. The protocol:
The term “ELISPOT” is used herein, for purposes of the specification and claims, to mean an adaptation of ELISA in which cells are placed over antibodies or antigens attached to a plastic surface. The antigen or antibody traps the cells' secreted products, which can then be detected by using an enzyme-coupled antibody that cleaves a preferably colorless substrate to make a localized colored spot.
In another embodiment, experiments were conducted with the E75 or Telomerase peptides+HLA beads in ex vivo ELISPOT assays run in the absence of stimulation (i.e. culture medium) or with plain or non-complexed E75 or Telomerase peptides. […] These responses have been reproduced in a number of assays using peripheral blood samples from prostate and breast cancer patients. The beads need not be made by DYNAL Biotech. Another biochemical manufacturer—such as BD Biosciences, may produce them.
In another embodiment, experiments were conducted with the E75 or Telomerase peptides+HLA beads in ex vivo ELISPOT assays run with negative control peptides.

Our source for the ELISPOT spots values is patent US8133691B2, “Stable quantitation and detection of immune response levels with non-zero background peptides” (The Henry M. Jackson Foundation for the Advancement of …, priority 2005, dated 2012).

As to “E37-ve: DYNAL beads + MHC + E37 negative control peptide (RIAWARTEL) [Peptide E37-ve]”, the ELISPOT spots amounted to 0 spots in assay [1] (1 × 10^5 beads/well, PBMC 1 × 10^5 cells/well); 6 spots in assay [1] (1 × 10^5 beads/well, PBMC 2 × 10^5 cells/well); 20 spots in assay [1] (1 × 10^5 beads/well, PBMC 3 × 10^5 cells/well); 0 spots in assay [1] (5 × 10^5 beads/well, PBMC 1 × 10^5 cells/well); 3 spots in assay [1] (5 × 10^5 beads/well, PBMC 2 × 10^5 cells/well); 8 spots in assay [1] (5 × 10^5 beads/well, PBMC 3 × 10^5 cells/well).
With “NH2-RIAWARTEL-COOH (H-RIAWARTEL-OH) [Peptide E37, negative control peptide]”, the ELISPOT spots in assay [2] turned out to be 1 spots.
